Data reported in US11185100B2 (priority 2014, dated 2021).
Like-named read-outs stand apart in the source and are kept apart here.

What was measured:
[1] = target: T1, T1R1/T1R3 receptor (Felis catus, UniProt E3UMS2); assay: Activation of T1R1/T1R3 receptor by transmembrane compounds and nucleotide derivatives, conducted as in Examples 1, 2 and 5 (Example 7); assay type: cell-based, cat; conditions: for Activity: modulation of T1R1/T1R3
From the text: (§1) Methods: HEK293 cells that stably express T1R3 and inducibly express T1R1 were exposed to nucleotide derivatives alone to activate the umami receptor. Activation of the T1R1/T1R3 receptor was detected by a change in intracellular calcium levels using a calcium sensitive fluorescent dye. Cells that express T1R3 but not T1R1 were used as a control. A FLIPR® Tetra or a FlexStation® 3 was used for data capture.
as §1, with “alone or in combination with one or more amino acids and/or one or more nucleotides” for “alone”, “dye and/or a luminescent reporter system.” for “dye.”
as §1, with “transmembrane compounds” for “nucleotide derivatives”, “alone or in combination with one or more amino acids and/or one or more nucleotides” for “alone”
(§2) In each experiment, serial dilutions of up to 10 mM of the transmembrane compound were added to the T1R1/T1R3-expressing cells.

[2] = target: T1, T1R1/T1R3 receptor; assay: Activation of T1R1/T1R3 receptor by transmembrane compounds alone or with alanine, IMP, GMP, phenylalanine; HEK293 cells, calcium fluorescence (Example 5); assay type: cell-based, cat; conditions: for Max resp % of IMP +Alanine (20 mM): relative to IMP; for Thres +Alanine (20 mM) / Thres +IMP (0.2 mM): threshold concentration; for Max resp % of Ala +IMP (0.2 mM): relative to Ala; for Activity: Table 18, all transmembrane compounds tested, active / N/A (not active)
From the text: as §1, with “transmembrane compounds” for “nucleotide derivatives”, “alone or in combination with one or more amino acids and/or one or more nucleotides” for “alone”
as §2

[3] = read-out: EC50 +Alanine (20 mM)
[4] = read-out: EC50 +Alanine (20 mM) + IMP (0.2 mM)

SMILES | Max resp % of Ala +IMP (0.2 mM) ([1]; +IMP (0.2 mM)) | Max resp ΔF/F +IMP (0.2 mM) ([1]; +IMP (0.2 mM)) | Thres +IMP (0.2 mM) ([1]; +IMP (0.2 mM)) [mM] | Activity [1] | Max resp ΔF/F +Alanine (20 mM) [1] | Thres +Alanine (20 mM) [1] [mM] | Max resp % of IMP +Alanine (20 mM) ([1]; hek293 cells) | further results
CCOC(=O)NC(=O)C(c1ccccc1)c1ccccc1 [Ro 01-6128, reference compound] | 199.7 % of Ala | 1.5525 ΔF/F | 0.01 | active |  |  |  | Max resp % of IMP +Alanine (20 mM) ([1]; +Alanine (20 mM)): 74.8 % of IMP; Max resp ΔF/F +Alanine (20 mM) ([1]; +Alanine (20 mM)): 0.5125 ΔF/F; Thres +Alanine (20 mM) ([1]; +Alanine (20 mM)): 0.3 mM
Nc1ccccc1C(=O)NCCc1ccccc1 [2-amino-N-phenethylbenzamide] | 194.5 % of Ala | 1.5125 ΔF/F | 0.01 | active | 0.6400 ΔF/F | 0.3 | 93.4 % of IMP | 
CSCC[C@H](N)C(=O)O [L-Methionine, reference compound] |  |  |  |  |  |  |  | Max resp ΔF/F +IMP (0.2 mM) [1]: 0.3500 ΔF/F; Thres +IMP (0.2 mM) [1]: 30.0 mM; Max resp % of Ala +IMP (0.2 mM) ([1]; hek293 cells): 45.0 % of Ala
N[C@@H](CS)C(=O)O [L-Cysteine, reference compound] | 74.6 % of Ala | 0.5800 ΔF/F | 10.0 |  |  |  |  | 
O=C(NCCc1ccccc1)c1cccnc1 [N-phenethylnicotinamide] | 149.5 % of Ala | 1.1625 ΔF/F | 0.03 | active | 0.5725 ΔF/F | 0.1 | 83.6 % of IMP | EC50 ([1]; read-out: T1R1/T1R3 EC50): > 300 µM
O=C(NCCc1c[nH]c2ccccc12)c1cccnc1 [N-(2-(1H-indol-3-yl)ethyl)nicotinamide, N-(2-(1H-Indol-3-yl)ethyl)nicotinamide] | 170.1 % of Ala | 1.3225 ΔF/F | 0.003 | active | 1.1400 ΔF/F | 0.03 | 166.4 % of IMP | EC50 [1, 3]: > 100 µM
Nc1nc2c(ncn2[C@@H]2O[C@H](COP(=O)(O)O)[C@@H](O)[C@H]2O)c(=O)[nH]1 [Guanosine monophosphate (GMP), guanosine monophosphate, reference compound] |  |  |  |  |  |  |  | Max resp % of IMP +Alanine (20 mM) ([1]; +Alanine (20 mM)): 114.6 % of IMP; Max resp ΔF/F +Alanine (20 mM) ([1]; +Alanine (20 mM)): 0.7850 ΔF/F; Thres +Alanine (20 mM) ([1]; +Alanine (20 mM)): 0.01 mM
CC(=O)Nc1ccc(C(=O)Nc2cc(-c3ccccc3)nn2CCO)cc1 [4-acetamido-N-(1-(2-hydroxyethyl)-3-phenyl-1H-pyrazol-5-yl)benzamide] | 58.8 % of Ala | 0.4575 ΔF/F |  | active | 0.0125 ΔF/F |  | 1.8 % of IMP | 
N[C@@H](Cc1c[nH]c2ccccc12)C(=O)O [L-Tryptophan, reference compound] | 86.8 % of Ala | 0.6750 ΔF/F | 0.1 |  |  |  |  | 
O=C(NCCc1ccccc1)c1ccccc1 [N-phenethylbenzamide] | 126.0 % of Ala | 0.9800 ΔF/F | 0.01 | active | 0.1400 ΔF/F | 0.6 | 20.4 % of IMP | 
O=C(O)C1CCCCC1C(=O)Nc1cc(Cl)cc(Cl)c1 (stereo not shown) [2-((3,5-dichlorophenyl)carbamoyl)cyclohexanecarboxylic acid] | 157.9 % of Ala | 1.2275 ΔF/F | 0.03 | active | 1.1200 ΔF/F | 0.1 | 163.5 % of IMP | 
N[C@@H](CO)C(=O)O [L-Serine, reference compound] | 100.0 % of Ala | 0.7775 ΔF/F | 3.0 |  |  |  |  | 
CCCCc1nn(CC(=O)N2CCCC2)c(=O)n1Cc1ccccc1 [4-benzyl-3-butyl-1-(2-oxo-2-(pyrrolidin-1-yl)ethyl)-1H-1,2,4-triazol-5(4H)-one] | 193.2 % of Ala | 1.5025 ΔF/F | 0.1 | active | 0.8900 ΔF/F | 0.3 | 129.9 % of IMP | EC50 ([1]; compound alone in buffer, read-out: EC50 +buffer (alone)): > 600 µM; EC50 [1, 3]: > 600 µM; EC50 [1, 4]: > 600 µM; EC50 ([1]; read-out: EC50 +IMP (0.2 mM), +IMP (0.2 mM)): > 600 µM
O=C(NCCCCNC(=O)c1cccnc1)c1cccnc1 [N,N′-(butane-1,4-diyl)dinicotinamide] | 49.2 % of Ala | 0.3825 ΔF/F | 0.1 | active | 0.0650 ΔF/F | 1.0 | 9.5 % of IMP | EC50 [1, 4]: 610 µM; EC50 ([1]; read-out: T1R1/T1R3 EC50): 610 ± 360 µM
N[C@@H](Cc1ccc(O)cc1)C(=O)O [L-Tyrosine, reference compound] | 38.0 % of Ala |  | 3.0 |  |  |  |  | Max resp ΔF/F +IMP (0.2 mM) [1]: 0.2958 ΔF/F
CC(C)CC(NC(=O)c1ccccc1)C(N)=O (racemic) | 204.5 % of Ala | 1.5900 ΔF/F | 0.1 | active | 0.8600 ΔF/F | 0.3 | 125.5 % of IMP | EC50 ([1]; +0.2 mM IMP, read-out: T1R1/T1R3 EC50): 470 ± 70 µM; EC50 ([1]; alone in buffer, read-out: T1R1/T1R3 EC50): > 600 µM; EC50 ([1]; read-out: T1R1/T1R3 EC50): > 1000 µM
N[C@@H](Cc1ccccc1)C(=O)O [L-Phenylalanine, reference compound] | 75.9 % of Ala | 0.5900 ΔF/F | 0.1 |  |  |  |  | 
COc1ccc(C(=O)NC(C)c2ccccc2)cc1C (stereo not shown) [4-methoxy-3-methyl-N-(1-phenylethyl)benzamide] |  |  |  |  |  |  |  | +Alanine (20 mM) Max resp % of IMP [2]: 41.0 % of IMP; +Alanine (20 mM) Max resp ΔF/F [2]: 0.51 ΔF/F; +Alanine (20 mM) Thres [2]: 3 mM; Max resp % of IMP +Alanine (20 mM) [2]: 41.0%; Thres +Alanine (20 mM) [2]: 3 mM; +IMP (0.2 mM) Max resp % of Ala [2]: 95.6 % of Ala; Max resp ΔF/F +IMP (0.2 mM) [2]: 1.1775 ΔF/F; Max resp % of Ala +IMP (0.2 mM) [2]: 95.6%; Thres +IMP (0.2 mM) [2]: 0.35 mM; Activity [2]: active
N[C@@H](Cc1c[nH]cn1)C(=O)O [L-Histidine, L-histidine, reference compound] | 36.3 % of Ala | 0.2825 ΔF/F | 10.0 |  |  |  |  | 
O=C(NCCc1ccccc1)c1ccc2c(c1)OCO2 [N-phenethylbenzo[d][1,3]dioxole-5-carboxamide] | 92.0 % of Ala | 0.7150 ΔF/F | 0.01 | active | 0.0775 ΔF/F | 1.0 | 11.3 % of IMP | 
CCCC(CCC)C(=O)Nc1ccc2c(c1)OCO2 [N-(benzo[d][1,3]dioxol-5-yl)-2-propylpentanamide] |  |  |  |  |  |  |  | +IMP (0.2 mM) Max resp % of Ala [2]: 108.0 % of Ala; Max resp ΔF/F +IMP (0.2 mM) [2]: 0.908 ΔF/F; Max resp % of Ala +IMP (0.2 mM) [2]: 108.0%; Thres +IMP (0.2 mM) [2]: 0.0675 mM; Activity [2]: active; activation of T1R1/T1R3 by the transmembrane compound alone (in words) ([2]; compound alone): function as an agonist
CC1CCCC(NC(=O)c2ccc3c(c2)OCO3)C1C (stereo not shown) [N-(2,3-dimethylcyclohexyl) benzo[d][1,3]dioxole-5-carboxamide] |  |  |  |  |  |  |  | +Alanine (20 mM) Max resp % of IMP [2]: 18.1 % of IMP; +Alanine (20 mM) Max resp ΔF/F [2]: 0.225 ΔF/F; +Alanine (20 mM) Thres [2]: 3 mM; Max resp % of IMP +Alanine (20 mM) [2]: 18.1%; Thres +Alanine (20 mM) [2]: 3 mM; +IMP (0.2 mM) Max resp % of Ala [2]: 95.4 % of Ala; Max resp ΔF/F +IMP (0.2 mM) [2]: 1.175 ΔF/F; Max resp % of Ala +IMP (0.2 mM) [2]: 95.4%; Thres +IMP (0.2 mM) [2]: 0.275 mM; Activity [2]: active
